In patent US20070093520A1, “Method of treatment of diarrhea-predominant irritable bowel syndrome in a subject” (priority 2005, published 2007):

Tested on: diarrhea-predominant IBS subjects
Test: 3007 Study: open-label 52-week safety study, adverse events and withdrawals
[1] = Cilansetron 2 mg/Cilansetron 2 mg
[2] = Cilansetron 2 mg/Cilansetron 2 mg, N=257
[3] = Cilansetron 2 mg/Cilansetron 2 mg, N=257, % of appropriate gender
[4] = Cilansetron 2 mg/Cilansetron 2 mg, gender-specific

## Cc1nccn1C[C@H]1CCc2c(c3cccc4c3n2CCC4)C1=O [cilansetron, (R)-(−)-4,5,6,8,9,10-hexahydro-10-[(2-methyl-1H-imidazol-1-yl)methyl]-11H-pyrido-[3,2,1-jk]-carbazol-11-one]
[1]
  TEAE: Upper Limb Fractures and Dislocations: 0 n (%)
  TEAE: Upper Respiratory Tract Infection NOS: 18 (7%) n (%)
  TEAE: Upper Respiratory Tract Infections - Pathogen Class Unspecified: 42 (16%) n (%)
  TEAE: Urinalysis NEC: 10 (4%) n (%)
  TEAE: Urinary Tract Infection NOS: 16 (6%) n (%)
  TEAE: Urinary Tract Infections: 17 (7%) n (%)
  TEAE: Urine Analysis Abnormal NOS: 1 (<1%) n (%)
  TEAE: Urine Bilirubin Increased: 0 n (%)
  TEAE: Urine Ketone Body Present: 3 (1%) n (%)
  TEAE: Urine Leukocyte Esterase Positive: 3 (1%) n (%)
  TEAE: Urobilin Urine Present: 1 (<1%) n (%)
  TEAE: Vascular Auscultatory Investigations: 0 n (%)
  TEAE: Vascular Tests NEC (Incl Blood Pressure): 3 (1%) n (%)
  TEAE: Vasovagal Attack: 1 (<1%) n (%)
  TEAE: Viral Infection NOS: 2 (<1%) n (%)
  TEAE: Viral Infections NEC: 7 (3%) n (%)
  TEAE: Vomiting NOS: 9 (4%) n (%)
  TEAE: Weight Decreased: 1 (<1%) n (%)
  TEAE: Weight Increased: 6 (2%) n (%)
  TEAE: White Blood Cell Analyses: 4 (2%) n (%)
  TEAE: White Blood Cell Count Decreased: 1 (<1%) n (%)
  TEAE: White Blood Cells Urine Positive: 1 (<1%) n (%)
[2]
  TEAE leading to permanent discontinuation: Abdominal Distension: 2 (<1%) n (%)
  TEAE leading to permanent discontinuation: Abdominal Pain Aggravated: 1 (<1%) n (%)
  TEAE leading to permanent discontinuation: Abdominal Pain Lower: 0 n (%)
  TEAE leading to permanent discontinuation: Abdominal Pain NOS: 5 (2%) n (%)
  TEAE leading to permanent discontinuation: Abdominal Pain Upper: 1 (<1%) n (%)
  TEAE leading to permanent discontinuation: Alanine Aminotransferase Increased: 1 (<1%) n (%)
  TEAE leading to permanent discontinuation: Angina Pectoris: 1 (<1%) n (%)
  TEAE leading to permanent discontinuation: Appendicitis: 1 (<1%) n (%)
  TEAE leading to permanent discontinuation: Asthma Aggravated: 1 (<1%) n (%)
  TEAE leading to permanent discontinuation: Asthma NOS: 1 (<1%) n (%)
  TEAE leading to permanent discontinuation: Back Pain: 3 (1%) n (%)
  TEAE leading to permanent discontinuation: Bladder Prolapse: 0 n (%)
  TEAE leading to permanent discontinuation: Blood Bilirubin Increased: 1 (<1%) n (%)
  TEAE leading to permanent discontinuation: Blood Pressure Increased: 1 (<1%) n (%)
  TEAE leading to permanent discontinuation: Blood Urine Present: 1 (<1%) n (%)
  TEAE leading to permanent discontinuation: Bone Neoplasm Malignant: 1 (<1%) n (%)
  TEAE leading to permanent discontinuation: Cardiac Disorders: 1 (<1%) n (%)
  TEAE leading to permanent discontinuation: Chest Discomfort: 0 n (%)
  TEAE leading to permanent discontinuation: Chest Pain: 0 n (%)
  TEAE leading to permanent discontinuation: Chest Wall Pain: 0 n (%)
  TEAE leading to permanent discontinuation: Colitis Ischaemic: 0 n (%)
  TEAE leading to permanent discontinuation: Constipation: 7 (3%) n (%)
  TEAE leading to permanent discontinuation: Cough: 0 n (%)
  TEAE leading to permanent discontinuation: Dehydration: 1 (<1%) n (%)
  TEAE leading to permanent discontinuation: Depression: 0 n (%)
  TEAE leading to permanent discontinuation: Diarrhoea Aggravated: 1 (<1%) n (%)
  TEAE leading to permanent discontinuation: Diarrhoea Haemorrhagic: 0 n (%)
  TEAE leading to permanent discontinuation: Diarrhoea NOS: 4 (2%) n (%)
  TEAE leading to permanent discontinuation: Dizziness: 0 n (%)
  TEAE leading to permanent discontinuation: Dyspepsia: 1 (<1%) n (%)
  TEAE leading to permanent discontinuation: Ear and Labyrinth Disorders: 1 (<1%) n (%)
  TEAE leading to permanent discontinuation: Epigastric Discomfort: 0 n (%)
  TEAE leading to permanent discontinuation: Eructation: 1 (<1%) n (%)
  TEAE leading to permanent discontinuation: Eye Disorders: 0 n (%)
  TEAE leading to permanent discontinuation: Faecal Abnormality NOS: 1 (<1%) n (%)
  TEAE leading to permanent discontinuation: Faecal Impaction: 0 n (%)
  TEAE leading to permanent discontinuation: Faecal Incontinence: 0 n (%)
  TEAE leading to permanent discontinuation: Faeces Hard: 1 (<1%) n (%)
  TEAE leading to permanent discontinuation: Fatigue: 3 (1%) n (%)
  TEAE leading to permanent discontinuation: Fibroma NOS: 0 n (%)
  TEAE leading to permanent discontinuation: Flatulence: 2 (<1%) n (%)
  TEAE leading to permanent discontinuation: Gastric Irritation: 1 (<1%) n (%)
  TEAE leading to permanent discontinuation: Gastrointestinal Disorders: 24 (9%) n (%)
  TEAE leading to permanent discontinuation: Gastrointestinal Motility Disorder NOS: 0 n (%)
  TEAE leading to permanent discontinuation: General Disorders and Administration Site Conditions: 3 (1%) n (%)
  TEAE leading to permanent discontinuation: Haemorrhoidal Haemorrhage: 0 n (%)
  TEAE leading to permanent discontinuation: Hallucination NOS: 0 n (%)
  TEAE leading to permanent discontinuation: Hallucination, Auditory: 0 n (%)
  TEAE leading to permanent discontinuation: Headache NOS: 1 (<1%) n (%)
  TEAE leading to permanent discontinuation: Headache NOS Aggravated: 1 (<1%) n (%)
  TEAE leading to permanent discontinuation: Heart Rate Increased: 1 (<1%) n (%)
  TEAE leading to permanent discontinuation: Hepatobiliary Disorders: 1 (<1%) n (%)
  TEAE leading to permanent discontinuation: Hepatosplenomegaly NOS: 1 (<1%) n (%)
  TEAE leading to permanent discontinuation: Hiatus Hernia: 1 (<1%) n (%)
  TEAE leading to permanent discontinuation: Investigations: 5 (2%) n (%)
  TEAE leading to permanent discontinuation: Irritable Bowel Syndrome Aggravated: 1 (<1%) n (%)
  TEAE leading to permanent discontinuation: Lethargy: 0 n (%)
  TEAE leading to permanent discontinuation: Metabolism and Nutrition Disorders: 1 (<1%) n (%)
  TEAE leading to permanent discontinuation: Migraine NOS: 1 (<1%) n (%)
  TEAE leading to permanent discontinuation: Muscle Cramps: 2 (<1%) n (%)
  TEAE leading to permanent discontinuation: Musculoskeletal and Connective Tissue Disorders: 5 (2%) n (%)
  TEAE leading to permanent discontinuation: Nausea: 3 (1%) n (%)
  TEAE leading to permanent discontinuation: Neoplasms Benign, Malignant and Unspecified (Incl Cysts and Polyps): 2 (<1%) n (%)
  TEAE leading to permanent discontinuation: Nervous System Disorders: 4 (2%) n (%)
  TEAE leading to permanent discontinuation: Pregnancy, Puerperium and Perinatal Conditions: 1 (<1%) n (%)
  TEAE leading to permanent discontinuation: Pruritus NOS: 1 (<1%) n (%)
  TEAE leading to permanent discontinuation: Psychiatric Disorders: 0 n (%)
  TEAE leading to permanent discontinuation: Psychotic Disorder NOS: 0 n (%)
  TEAE leading to permanent discontinuation: Rash Macular: 0 n (%)
  TEAE leading to permanent discontinuation: Rash NOS: 0 n (%)
  TEAE leading to permanent discontinuation: Rectal Disorder NOS: 0 n (%)
  TEAE leading to permanent discontinuation: Rectal Haemorrhage: 2 (<1%) n (%)
  TEAE leading to permanent discontinuation: Rectal Tenesmus: 0 n (%)
  TEAE leading to permanent discontinuation: Renal and Urinary Disorders: 0 n (%)
  TEAE leading to permanent discontinuation: Respiratory, Thoracic and Mediastinal Disorders: 2 (<1%) n (%)
  TEAE leading to permanent discontinuation: Skin and Subcutaneous Tissue Disorders: 1 (<1%) n (%)
  TEAE leading to permanent discontinuation: Somnolence: 1 (<1%) n (%)
  TEAE leading to permanent discontinuation: Stomach Discomfort: 0 n (%)
  TEAE leading to permanent discontinuation: Suicidal Ideation: 0 n (%)
  TEAE leading to permanent discontinuation: Urticaria NOS: 0 n (%)
  TEAE leading to permanent discontinuation: Vertigo: 1 (<1%) n (%)
  TEAE leading to permanent discontinuation: Visual Acuity Reduced: 0 n (%)
  TEAE leading to permanent discontinuation: Vomiting NOS: 1 (<1%) n (%)
  TEAE leading to permanent discontinuation: White Blood Cells Urine Positive: 1 (<1%) n (%)
  Total Number of Subjects with at Least One TEAE Leading to Discontinuation of Study Medication: 33 (13%) n (%)
[3]
  TEAE leading to permanent discontinuation: Benign Ovarian Tumour*: 0 n (%)
  TEAE leading to permanent discontinuation: Breast Cancer NOS*: 0 n (%)
  TEAE leading to permanent discontinuation: Ovarian Cancer NOS*: 1 (<1%) n (%)
  TEAE leading to permanent discontinuation: Ovarian Cystadenofibroma*: 0 n (%)
  TEAE leading to permanent discontinuation: Pregnancy NOS*: 1 (<1%) n (%)
[4]
  TEAE: Female Reproductive Tract Infections*: 2 (1%) n (%)
  TEAE: Prostate Examination Abnormal*: 1 (1%) n (%)
  TEAE: Smear Cervix Abnormal*: 1 (<1%) n (%)
  TEAE: Vaginal Candidiasis*: 1 (<1%) n (%)
  TEAE: Vaginitis Bacterial NOS*: 1 (<1%) n (%)
  TEAE: Vaginitis*: 1 (<1%) n (%)
  TEAE: Vaginosis Fungal NOS*: 1 (<1%) n (%)
Overall
  TEAE: Abdominal Discomfort: 1 (<1%) n (%)
  TEAE: Abdominal Distension: 15 (3%) n (%)
  TEAE: Abdominal Pain Aggravated: 4 (<1%) n (%)
  TEAE: Abdominal Pain Lower: 10 (2%) n (%)
  TEAE: Abdominal Pain NOS: 35 (7%) n (%)
  TEAE: Abdominal Pain Upper: 11 (2%) n (%)
  TEAE: Abdominal Rebound Tenderness: 1 (<1%) n (%)
  TEAE: Abdominal Tenderness: 13 (2%) n (%)
  TEAE: Abdominal Therapeutic Procedures NEC: 1 (<1%) n (%)
  TEAE: Abdominoplasty: 1 (<1%) n (%)
  TEAE: Abnormal Chest Sounds NOS: 1 (<1%) n (%)
  TEAE: Abnormal Reflexes: 1 (<1%) n (%)
  TEAE: Acne NOS: 1 (<1%) n (%)
  TEAE: Acnes: 1 (<1%) n (%)
  TEAE: Acquired Hypothyroidism: 2 (<1%) n (%)
  TEAE: Acrochordons: 1 (<1%) n (%)
  TEAE: Adenomyosis*: 1 (<1%) n (%)
  TEAE: Age Related Issues: 1 (<1%) n (%)
  TEAE: Alanine Aminotransferase Increased: 14 (3%) n (%)
  TEAE: Allergic Conditions NEC: 3 (<1%) n (%)
  TEAE: Allergies to Foods, Food Additives, Drugs and Other Chemicals: 2 (<1%) n (%)
  TEAE: Allergy to Insect Sting: 1 (<1%) n (%)
  TEAE: Alopecia: 1 (<1%) n (%)
  TEAE: Alopecias: 1 (<1%) n (%)
  TEAE: Amenorrhoea NOS*: 1 (<1%) n (%)
  TEAE: Anaemia NOS: 1 (<1%) n (%)
  TEAE: Anaemias NEC: 1 (<1%) n (%)
  TEAE: Anal and Rectal Disorders NEC: 1 (<1%) n (%)
  TEAE: Anal and Rectal Pains: 4 (<1%) n (%)
  TEAE: Anal and Rectal Signs and Symptoms: 4 (<1%) n (%)
  TEAE: Angina Pectoris: 3 (<1%) n (%)
  TEAE: Animal Bite: 1 (<1%) n (%)
  TEAE: Anorexia: 2 (<1%) n (%)
  TEAE: Anxiety: 8 (1%) n (%)
  TEAE: Anxiety Aggravated: 3 (<1%) n (%)
  TEAE: Anxiety Symptoms: 12 (2%) n (%)
  TEAE: Apocrine and Eccrine Gland Disorders: 3 (<1%) n (%)
  TEAE: Appendicitis: 1 (<1%) n (%)
  TEAE: Appetite Disorders: 2 (<1%) n (%)
  TEAE: Arrhythmia NOS: 1 (<1%) n (%)
  TEAE: Arthralgia: 13 (2%) n (%)
  TEAE: Arthritis NOS: 3 (<1%) n (%)
  TEAE: Arthritis NOS Aggravated: 1 (<1%) n (%)
  TEAE: Arthropathies NEC: 6 (1%) n (%)
  TEAE: Arthropod Bite: 2 (<1%) n (%)
  TEAE: Arthropod Sting: 1 (<1%) n (%)
  TEAE: Aspartate Aminotransferase Increased: 7 (1%) n (%)
  TEAE: Asthenic Conditions: 15 (3%) n (%)
  TEAE: Asthma Aggravated: 1 (<1%) n (%)
  TEAE: Asthma NOS: 2 (<1%) n (%)
